According to patent publication US8912180B2, “Heterocyclic compound” (Astellas Pharma Inc., priority 2010, dated 2014):
Structures can show the parent of a compound that is named as a salt.

Tests used:
[1] = tested on: Spleen cells prepared from male LEW/CrlCrlj rats (B cell proliferation); assay: Rat B cell proliferation inhibition test (anti-rat IgM, [3H]thymidine); type: cell-based; conditions: anti-rat IgM 3 μg/well, 48 hours culture
Method: 4. Rat B Cell Proliferation Inhibition Test
Spleen cells (1.0×10^5 cells/well) prepared from male LEW/CrlCrlj rats (Charles River Laboratories, Japan, Inc.), mouse F(ab′)2 fragment anti-rat IgM (3 μg/well, SouthernBiotech Associates, Inc., Catalogue No. 3082-14) and the test compound dissolved in DMSO (final DMSO concentration 0.1%) were mixed in a 96-well plate using a 10% FCS-containing RPMI-1640 culture medium (total 200 μL). They were cultured in a CO2 incubator for 48 hours and [^3H]thymidine (925 GBq/mmol, Moravek Biochemicals, Inc., Catalogue No. MT6038) was added thereto at 0.037 MBq/well at 4 hours before completion of culture. Cells were harvested in a GF/C glass filter using a cell harvester, and a radioactivity on the filter was measured using a liquid scintillation counter.

[2] = biological target: T1, human PI3Kδ enzyme (Homo sapiens, UniProt O00329); assay: PI3Kδ enzyme inhibitory activity (PI3-Kinase HTRF Assay kit); type: biochemical; conditions: human PI3Kδ 10 ng/well, ATP 30 μM, PIP2 10 μM, room temperature 30 minutes
T1 construct: purchased Millipore Corporation 14-604
T1 sequence (O00329 whole entry): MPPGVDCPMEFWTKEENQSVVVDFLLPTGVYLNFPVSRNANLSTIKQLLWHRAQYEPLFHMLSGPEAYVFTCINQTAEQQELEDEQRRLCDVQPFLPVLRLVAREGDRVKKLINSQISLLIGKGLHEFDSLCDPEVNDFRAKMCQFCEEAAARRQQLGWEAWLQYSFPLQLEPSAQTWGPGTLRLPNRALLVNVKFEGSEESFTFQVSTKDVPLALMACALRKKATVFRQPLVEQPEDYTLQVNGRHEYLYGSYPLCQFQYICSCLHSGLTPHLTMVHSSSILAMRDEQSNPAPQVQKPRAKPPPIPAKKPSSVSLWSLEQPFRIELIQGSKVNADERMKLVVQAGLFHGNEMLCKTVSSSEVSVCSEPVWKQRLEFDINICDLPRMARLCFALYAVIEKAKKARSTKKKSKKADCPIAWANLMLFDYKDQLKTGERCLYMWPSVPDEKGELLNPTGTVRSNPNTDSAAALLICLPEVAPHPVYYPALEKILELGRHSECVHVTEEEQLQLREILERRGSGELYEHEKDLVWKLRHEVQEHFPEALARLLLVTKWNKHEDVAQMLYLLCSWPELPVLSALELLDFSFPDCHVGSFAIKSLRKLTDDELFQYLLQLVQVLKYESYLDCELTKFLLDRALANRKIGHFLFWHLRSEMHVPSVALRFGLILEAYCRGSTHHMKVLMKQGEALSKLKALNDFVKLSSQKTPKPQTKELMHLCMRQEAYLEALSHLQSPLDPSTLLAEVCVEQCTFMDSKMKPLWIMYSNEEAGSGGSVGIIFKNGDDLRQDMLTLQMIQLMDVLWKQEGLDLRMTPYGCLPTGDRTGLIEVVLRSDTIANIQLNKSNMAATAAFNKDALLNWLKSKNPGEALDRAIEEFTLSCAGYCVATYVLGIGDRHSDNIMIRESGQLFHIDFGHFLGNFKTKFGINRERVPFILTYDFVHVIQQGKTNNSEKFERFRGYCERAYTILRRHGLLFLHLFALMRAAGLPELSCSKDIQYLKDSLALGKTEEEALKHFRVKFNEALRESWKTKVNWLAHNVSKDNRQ
T1 sequence (P27986 whole entry partner): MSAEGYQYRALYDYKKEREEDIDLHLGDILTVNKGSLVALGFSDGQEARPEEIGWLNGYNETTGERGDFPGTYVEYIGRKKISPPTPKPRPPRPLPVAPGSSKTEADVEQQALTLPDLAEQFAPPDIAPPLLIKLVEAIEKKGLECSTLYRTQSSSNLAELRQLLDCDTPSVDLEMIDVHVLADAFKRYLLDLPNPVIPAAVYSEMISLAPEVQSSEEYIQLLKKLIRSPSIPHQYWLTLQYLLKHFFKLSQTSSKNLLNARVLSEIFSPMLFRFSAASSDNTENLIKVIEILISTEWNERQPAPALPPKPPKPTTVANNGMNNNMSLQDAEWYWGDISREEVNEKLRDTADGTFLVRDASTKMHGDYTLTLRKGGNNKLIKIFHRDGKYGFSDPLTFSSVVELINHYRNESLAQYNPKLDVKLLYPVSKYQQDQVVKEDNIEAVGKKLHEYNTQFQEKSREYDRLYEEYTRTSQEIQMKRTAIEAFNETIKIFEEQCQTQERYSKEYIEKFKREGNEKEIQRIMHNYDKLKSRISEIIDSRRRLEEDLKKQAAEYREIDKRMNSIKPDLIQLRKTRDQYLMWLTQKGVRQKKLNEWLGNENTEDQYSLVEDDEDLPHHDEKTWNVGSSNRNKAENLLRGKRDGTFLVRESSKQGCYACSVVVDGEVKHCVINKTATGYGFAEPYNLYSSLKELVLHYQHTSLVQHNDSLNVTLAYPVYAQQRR
Method: 1. PI3Kδ Enzyme Inhibitory Activity
For the experiment, a PI3-Kinase HTRF Assay kit (Millipore Corporation, Catalogue No. 33-016) and a human PI3Kδ enzyme (Millipore Corporation, Catalogue No. 14-604) were used. The measurement method was in accordance with the appended instructions. The overview thereof is as follows.
PI3Kδ (10 ng/well), phosphatidylinositol-4,5-bisphosphate (10 μM), ATP (30 μM), and the test compound were mixed in a 384-well plate (total 20 μL), and incubated at room temperature for 30 minutes. EDTA and biotinylated phosphatidylinositol-3,4,5-triphosphate were added thereto to stop the reaction. Thereafter, a Europium labeled anti-GST antibody, a GST bond GRP1 PH domain, and streptavidin-APC were added thereto, followed by incubation overnight. An HTRF ratio was measured using an HTRF plate reader.

[3] = biological target: T2, Human PI3Kα (Homo sapiens, UniProt P42336); assay: PI3Kα enzyme inhibitory activity (Kinase-Glo Plus luminescence); type: biochemical; conditions: human PI3Kα 12 ng/well, phosphatidylinositol 0.2 μg/well, 37° C. 3 hours
T2 construct: purchased Millipore Corporation 14-602
T2 sequence (P42336 whole entry): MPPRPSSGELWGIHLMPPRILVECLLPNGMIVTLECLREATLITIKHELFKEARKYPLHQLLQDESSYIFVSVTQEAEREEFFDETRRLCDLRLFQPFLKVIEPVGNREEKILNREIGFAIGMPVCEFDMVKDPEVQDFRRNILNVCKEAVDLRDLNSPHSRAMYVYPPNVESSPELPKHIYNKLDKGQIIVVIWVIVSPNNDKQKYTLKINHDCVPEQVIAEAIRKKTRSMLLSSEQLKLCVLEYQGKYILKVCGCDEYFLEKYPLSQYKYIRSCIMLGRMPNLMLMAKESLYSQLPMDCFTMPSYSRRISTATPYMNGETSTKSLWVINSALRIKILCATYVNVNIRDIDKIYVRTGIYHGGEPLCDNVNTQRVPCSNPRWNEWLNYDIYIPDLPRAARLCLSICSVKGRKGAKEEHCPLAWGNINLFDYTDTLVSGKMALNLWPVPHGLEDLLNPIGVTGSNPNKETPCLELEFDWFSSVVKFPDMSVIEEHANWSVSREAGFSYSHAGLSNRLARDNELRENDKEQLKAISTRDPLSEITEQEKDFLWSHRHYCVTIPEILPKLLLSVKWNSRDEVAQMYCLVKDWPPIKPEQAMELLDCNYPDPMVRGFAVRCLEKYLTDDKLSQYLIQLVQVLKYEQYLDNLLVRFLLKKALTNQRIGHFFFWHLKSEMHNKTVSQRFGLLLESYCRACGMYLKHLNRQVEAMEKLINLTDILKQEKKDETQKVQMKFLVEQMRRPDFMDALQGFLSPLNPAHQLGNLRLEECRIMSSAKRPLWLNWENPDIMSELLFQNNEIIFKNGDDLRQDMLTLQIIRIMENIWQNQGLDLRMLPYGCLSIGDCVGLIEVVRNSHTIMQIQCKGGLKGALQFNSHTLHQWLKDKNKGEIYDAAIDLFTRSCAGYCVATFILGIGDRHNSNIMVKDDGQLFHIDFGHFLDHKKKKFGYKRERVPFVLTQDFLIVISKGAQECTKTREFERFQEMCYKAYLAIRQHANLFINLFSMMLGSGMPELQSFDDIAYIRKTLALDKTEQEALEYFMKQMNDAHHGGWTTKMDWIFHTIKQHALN
T2 sequence (P27986 whole entry partner): as the sequence (P27986 whole entry partner) above
Method: 2. PI3Kα Enzyme Inhibitory Activity
Human PI3Kα (12 ng/well, Millipore Corporation, Catalogue No. 14-602), phosphatidylinositol (0.2 μg/well), and the test compound were mixed in a 384-well plate in a reaction buffer (50 mM Hepes, 10 mM NaCl, 10 mM MgCl2, 2 mM EGTA, 2 mM DTT, pH 7.3) (total 10 μl), and incubated at 37° C. for 3 hours. After the reaction, 10 μL of a Kinase-Glo Plus reagent (Promega, Catalogue No. V3772) was added thereto, and a luminescence was measured with a luminometer.

SMILES: O=C(CNC1CCCC1)N[C@H]1CC[C@H](Oc2cc(-n3c(C(F)F)nc4ccccc43)nc(N3CCOCC3)n2)CC1 [Example 134]
- IC50 [1]: 3.4 nM
- IC50 [2]: 4.7 nM
- IC50 [3]: 6600 nM

SMILES: FC(F)c1nc2ccccc2n1-c1cc(N2CCOCC2)nc(NCC2CCN([C@H]3CC[C@@H](F)CC3)CC2)n1 [Example 43-2, 4-[2-(difluoromethyl)-1H-benzimidazol-1-yl]-N-{[1-(cis-4-fluorocyclohexyl)piperidin-4-yl]methyl}-6-(morpholin-4-yl)pyrimidin-2-amine dihydrochloride]
- IC50 [1]: 3.1 nM
- IC50 [2]: 8.6 nM
- IC50 [3]: 8000 nM

SMILES: CC(C)(O)CNC12CCC(CNc3nc(N4CCOCC4)cc(-n4c(C(F)F)nc5ccccc54)n3)(CC1)CC2 [Example 85, 1-({4-[({4-[2-(difluoromethyl)-1H-benzimidazol-1-yl]-6-(morpholin-4-yl)pyrimidin-2-yl}amino)methyl]bicyclo[2.2.2]oct-1-yl}amino)-2-methylpropan-2-ol]
- IC50 [1]: 2.6 nM
- IC50 [2]: 21 nM
- IC50 [3]: 5500 nM

SMILES: FC(F)c1nc2ccccc2n1-c1cc(N[C@H]2C[C@@H]3C[C@H](N4CCOCC4)C[C@@H]3C2)nc(N2CCOCC2)n1 [Example 195]
- IC50 [1]: 3 nM
- IC50 [2]: 4.1 nM
- IC50 [3]: > 10000 nM

SMILES: CC1(NCC(=O)N[C@H]2CC[C@H](Oc3cc(-n4c(C(F)F)nc5ccccc54)nc(N4CCOCC4)n3)CC2)CC1 [Example 137]
- IC50 [1]: 4.6 nM
- IC50 [2]: 5.2 nM
- IC50 [3]: > 10000 nM

SMILES: CN(CC(=O)NC1CCC(Oc2cc(-n3c(C(F)F)nc4ccccc43)nc(N3CCOCC3)n2)CC1)C1CCC1 (stereo not drawn) [Example 196]
- IC50 [1]: 3.6 nM
- IC50 [2]: 4.8 nM
- IC50 [3]: > 10000 nM

SMILES: CC(=O)N[C@H]1CCN([C@H]2CC[C@H](Oc3cc(-n4c(C(F)F)nc5ccccc54)nc(N4CCOCC4)n3)CC2)C1=O [Example 99]
- IC50 [1]: 2.5 nM
- IC50 [2]: 16 nM
- IC50 [3]: > 10000 nM

SMILES: O=C(CC1CCCO1)N1CC[C@H](Nc2cc(-n3c(C(F)F)nc4ccccc43)nc(N3CCOCC3)n2)C1 (stereo partly drawn) [A299]
- IC50 [1]: 2.5 nM
- IC50 [2]: 25 nM
- IC50 [3]: 4900 nM

SMILES: CC(=O)N1CCC(CC(=O)N2CC(Nc3cc(-n4c(C(F)F)nc5ccccc54)nc(N4CCOCC4)n3)C2)CC1 [A564]
- IC50 [1]: 2.2 nM
- IC50 [2]: 19 nM

SMILES: CN1CC(C(=O)N2CC[C@H](Oc3cc(-n4c(C(F)F)nc5ccccc54)nc(N4CCOCC4)n3)C2)CC1=O (stereo partly drawn) [A451]
- IC50 [1]: 1.2 nM
- IC50 [2]: 35 nM
- IC50 [3]: 2200 nM

SMILES: O=C1CC[C@@H](C(=O)N2CC(Nc3cc(-n4c(C(F)F)nc5ccccc54)nc(N4CCOCC4)n3)C2)N1 [A562]
- IC50 [1]: 3.9 nM
- IC50 [2]: 14 nM
- IC50 [3]: 2900 nM

SMILES: FC(F)c1nc2ccccc2n1-c1cc(N2CCOCC2)nc(NCC2CCN(C3CCCCC3)CC2)n1 [Example 193]
- IC50 [1]: 4.1 nM
- IC50 [2]: 4.9 nM
- IC50 [3]: 8200 nM

SMILES: FC(F)c1nc2ccccc2n1-c1cc(OCC2CCN(C3CCOCC3)CC2)nc(N2CCOCC2)n1 [Example 40]
- IC50 [1]: 9 nM
- IC50 [2]: 20 nM
- IC50 [3]: > 10000 nM

SMILES: CCOC(=O)N[C@@H]1CCN([C@H]2CC[C@H](Oc3cc(-n4c(C(F)F)nc5ccccc54)nc(N4CCOCC4)n3)CC2)C1=O [Example 423]
- IC50 [1]: 3.1 nM
- IC50 [2]: 24 nM
- IC50 [3]: > 10000 nM

SMILES: C[C@H]1COCCN1c1cc(-n2c(C(F)F)nc3ccccc32)nc(NCC2CCN(C3CCOCC3)CC2)n1 [Example 38]
- IC50 [1]: 2.9 nM
- IC50 [2]: 23 nM
- IC50 [3]: 2200 nM

SMILES: COC(=O)N[C@@H]1CCN([C@H]2CC[C@H](Oc3cc(-n4c(C(F)F)nc5ccccc54)nc(N4CCOCC4)n3)CC2)C1=O [Example 389]
- IC50 [1]: 4.4 nM
- IC50 [2]: 11 nM
- IC50 [3]: > 10000 nM

SMILES: CCOC(=O)N1CCN(c2ccc(CNc3nc(N4CCOCC4)cc(-n4c(C(F)F)nc5ccccc54)n3)cc2)CC1 [Example 158]
- IC50 [1]: 10 nM
- IC50 [2]: 11 nM
- IC50 [3]: 6700 nM

SMILES: O=C(CC1CCOCC1)N1CC[C@H](Nc2cc(-n3c(C(F)F)nc4ccccc43)nc(N3CCOCC3)n2)C1 [A300]
- IC50 [1]: 2.6 nM
- IC50 [2]: 26 nM
- IC50 [3]: 6500 nM

SMILES: CC(=O)N1CCC(CC(=O)N2CC[C@H](Nc3cc(-n4c(C(F)F)nc5ccccc54)nc(N4CCOCC4)n3)C2)CC1 [A463]
- IC50 [1]: 1.4 nM
- IC50 [2]: 27 nM
- IC50 [3]: 3100 nM

SMILES: COC(=O)N1CCC(C(=O)N2CC[C@H](Nc3cc(-n4c(C(F)F)nc5ccccc54)nc(N4CCOCC4)n3)C2)CC1 [A298]
- IC50 [1]: 1.2 nM
- IC50 [2]: 28 nM
- IC50 [3]: 3500 nM

SMILES: FC(F)c1nc2ccccc2n1-c1cc(N2CCOCC2)nc(NCC2CCN(C3CCC(F)(F)CC3)CC2)n1 [Example 36]
- IC50 [1]: 6.8 nM
- IC50 [2]: 17 nM
- IC50 [3]: 6700 nM

SMILES: O=C([C@H]1CCCO1)N1CC[C@H](Nc2cc(-n3c(C(F)F)nc4ccccc43)nc(N3CCOCC3)n2)C1 [A290]
- IC50 [1]: 2.2 nM
- IC50 [2]: 7.4 nM
- IC50 [3]: 3800 nM

SMILES: O=C(C1CCOC1)N1CC[C@H](Oc2cc(-n3c(C(F)F)nc4ccccc43)nc(N3CCOCC3)n2)C1 (stereo partly drawn) [A449]
- IC50 [1]: 0.4 nM
- IC50 [2]: 20 nM
- IC50 [3]: 1400 nM

SMILES: NC1(C(=O)N[C@H]2CC[C@H](Oc3cc(-n4c(C(F)F)nc5ccccc54)nc(N4CCOCC4)n3)CC2)CCCC1 [Example 216]
- IC50 [1]: 5.7 nM
- IC50 [2]: 13 nM
- IC50 [3]: > 10000 nM

SMILES: COC(=O)N[C@@H]1CCN([C@H]2CC[C@H](Nc3nc(N4CCOCC4)cc(-n4c(C(F)F)nc5ccccc54)n3)CC2)C1=O [Example 441]
- IC50 [1]: 1.8 nM
- IC50 [2]: 48 nM
- IC50 [3]: 1400 nM

SMILES: CN(CC(C)(C)O)C12CCC(CNc3nc(N4CCOCC4)cc(-n4c(C(F)F)nc5ccccc54)n3)(CC1)CC2 [Example 121]
- IC50 [1]: 2 nM
- IC50 [2]: 13 nM
- IC50 [3]: 4900 nM

SMILES: COC(=O)N[C@H]1CCN([C@H]2CC[C@H](Oc3cc(-n4c(C(F)F)nc5ccccc54)nc(N4CCOCC4)n3)CC2)C1=O [Example 87, methyl{(3S)-1-[trans-4-({6-[2-(difluoromethyl)-1H-benzimidazol-1-yl]-2-(morpholin-4-yl)pyrimidin-4-yl}oxy)cyclohexyl]-2-oxopyrrolidin-3-yl}carbamate]
- IC50 [1]: 3.5 nM
- IC50 [2]: 4.9 nM
- IC50 [3]: > 10000 nM

SMILES: Cc1ccc2nc(C(F)F)n(-c3cc(N4CCOCC4)nc(NC[C@H]4CC[C@H](N5CCOCC5)CC4)n3)c2c1 [Example 132]
- IC50 [1]: 1.5 nM
- IC50 [2]: 12 nM
- IC50 [3]: > 10000 nM

SMILES: CC(C)(C)OC(=O)N1CC[C@H](Nc2nc(N3CCOCC3)cc(-n3c(C(F)F)nc4ccccc43)n2)C1 [Example 1, tert-butyl (3S)-3-({4-[2-(difluoromethyl)-1H-benzimidazol-1-yl]-6-morpholin-4-ylpyrimidin-2-yl}amino)pyrrolidine-1-carboxylate]
- IC50 [2]: 29 nM
- IC50 [3]: 2800 nM

SMILES: O=C(CNC1CCCCC1)N[C@H]1CC[C@H](Oc2cc(-n3c(C(F)F)nc4ccccc43)nc(N3CCOCC3)n2)CC1 [Example 135]
- IC50 [1]: 2.5 nM
- IC50 [2]: 3 nM
- IC50 [3]: 8000 nM

SMILES: CN(C)CC(=O)N[C@H]1CCC[C@H](Nc2cc(-n3c(C(F)F)nc4ccccc43)nc(N3CCOCC3)n2)C1 [Example 100]
- IC50 [2]: 5.7 nM
- IC50 [3]: > 3000 nM

SMILES: NC1(C(=O)N[C@H]2CC[C@H](Oc3cc(-n4c(C(F)F)nc5ccccc54)nc(N4CCOCC4)n3)CC2)CCC1 [Example 215]
- IC50 [1]: 6.7 nM
- IC50 [2]: 13 nM
- IC50 [3]: > 10000 nM

SMILES: CC(C)(C)OC(=O)N1CCC[C@H](CNc2nc(N3CCOCC3)cc(-n3c(C(F)F)nc4ccccc43)n2)C1 [Example 18]
- IC50 [2]: 50 nM
- IC50 [3]: 7700 nM

SMILES: O=C(CNCC1CC1)N[C@H]1CC[C@H](Oc2cc(-n3c(C(F)F)nc4ccccc43)nc(N3CCOCC3)n2)CC1 [Example 133]
- IC50 [2]: 5.2 nM
- IC50 [3]: 5900 nM

SMILES: OC1CCC(N2CCC(CNc3nc(N4CCOCC4)cc(-n4c(C(F)F)nc5ccccc54)n3)CC2)CC1 (stereo not drawn) [Example 28]
- IC50 [2]: 35 nM
- IC50 [3]: > 3000 nM

SMILES: O=C(CN1CCCCC1)N1CC[C@H](Nc2cc(-n3c(C(F)F)nc4ccccc43)nc(N3CCOCC3)n2)C1 [A475]
- IC50 [1]: 1.1 nM
- IC50 [2]: 25 nM
- IC50 [3]: 1400 nM

SMILES: CN1CC(C(=O)N2CC[C@H](Nc3cc(-n4c(C(F)F)nc5ccccc54)nc(N4CCOCC4)n3)C2)CC1=O (stereo partly drawn) [A466]
- IC50 [1]: 1.8 nM
- IC50 [2]: 15 nM
- IC50 [3]: 2000 nM
